One series has as its system CCL2. In words: Quantitative immunohistochemistry of ipsilateral dorsal horn astrocytes after PNI: CCL2. Format: in vivo, mouse. From the text: (§1) Tissue analysis. Spinal cords are perfusion-fixed (4% PFA), cryoprotected and cryosectioned coronally (7 μm). The dorsal horns of L3-4, which innervates the plantar surface of the mouse hindpaw (Rigaud et al., Species and strain differences in rodent sciatic nerve anatomy: implications for studies of neuropathic pain, Pain, 136:188-201, PMID: 18316160 (2008)), are examined for markers of astrocyte activation (GFAP), Sur1-Trpm4 and IL-6, as well as the chemokines CCL2 and CXCL1. […]
(§2) Tissue analysis. […] The DRG and dorsal horns of L3-4, which innervate the plantar surface of the hindpaw (Rigaud et al., Species and strain differences in rodent sciatic nerve anatomy: implications for studies of neuropathic pain, Pain, 136:188-201, PMID 18316160 (2008)), are examined to quantify changes in, and the time course of those changes, for markers of astrocyte activation (GFAP), microglia/macrophage activation (Iba1, CD68), SUR1-TRPM4, IL-6, the chemokines, CCL2 and CXCL1 and their cognate receptors, CCR2 and CXCR2. Expression of these markers will be quantitatively compared in the different treatment groups using immunohistochemistry and in situ hybridization with cell-specific markers (GFAP, NeuN, Iba1, CD45). Quantitative comparisons will be validated using immunoblot and qPCR. […]

For series [1] the following is noted: infusion of an appropriate dose of injectable glibenclamide, non-diabetics; below hypoglycemic threshold; cited from earlier work.
The next series has as its system GFAP or SUR1. In words: Intrathecal infusion in uninjured, naive mouse: GFAP and SUR1 expression. The series is classed as in vivo. The text has this: Spinal cord-specific inhibition or downregulation of SUR1 in central glia. […] The anesthetized mouse is mounted in a stereotaxic apparatus, hair is clipped from the dorsal thoracolumbar region, and the skin is prepped with Betadine solution. Using microscopic visualization, a midline incision is made, the paraspinal muscles are dissected off of the spinous processes and laminae. The spinous processes of L6-S1 are removed using a high speed surgical drill, and the dura between them is punctured using a 27-g needle. The infusion cannula of a Brain infusion kit (30 gauge cannula; Brain Infusion kit 3) is advanced stereotactically 1 mm into the thecal sac and is secured to the spine with cement.

In series [2] the test system is mice with peripheral nerve injury (PNI) by sciatic nerve cuffing. In words: Sciatic nerve cuff model: anxiety- and depression-like behaviors (open field, elevated plus maze, tail suspension). Format: in vivo, mouse. As to conditions: WT mice; 10 μg/day intraperitoneal starting on day 21 after PNI. How it is done: ANXIETY-LIKE and DEPRESSION-LIKE BEHAVIORS are assessed only one time, they are administered during the 3 days preceding euthanasia, and the order in which tests are applied is from least stressful to more stressful (as listed below). We follow standard protocols, fully described in Yalcin et al (Yalcin et al., A time-dependent history of mood disorders in a murine model of neuropathic pain, Biol Psychiatry, 70:946-53, PMID 21890110 (2011)). Open field testing is employed for measuring locomotor activity and willingness to explore in mice. A computerized tracking system (ANY-Maze; Stoelting Co.) records animal movements and calculates speed, distance and other parameters. Time spent exploring the center of the open field is inversely related to anxiety. Elevated Plus Maze (Colbourn Instruments). Rodents naturally tend to explore novel environments, but open, well lit, elevated areas are perceived as aversive. This test is widely used in rodent models of anxiety. Tail suspension test (Harvard Apparatus), which measures immobility time, as well as energy and power in motion, is employed as a measure of depression-like behavior in rodents.

Series [3] shares this test system. Briefly: Sciatic nerve cuff model of neuropathic pain: mechanical allodynia (von Frey filaments). Format: in vivo, mouse. From the text:
WT mice underwent unilateral PNI by sciatic nerve cuffing, a widely accepted model of neuropathic pain in mice (Valcin et al. The sciatic nerve cuffing model of neuropathic pain in mice, J Vis Exp, PMID: 25078668 (2014)). Sciatic nerve cuffing reliably induces signs of chronic pain, including sustained mechanical and thermal allodynia. In this model, mechanical allodynia assessed using von Frey filaments develops within 1 week, and is sustained thereafter.
(§3) Sciatic nerve cuff model of neuropathic pain (Valcin et al. The sciatic nerve cuffing model of neuropathic pain in mice, J Vis Exp, PMID: 25078668 (2014)). Surgeries are performed under ketamine/xylazine anesthesia using aseptic techniques. The common branch of the right sciatic nerve is dissected and a 2 mm long section of pre-split PE-20 tubing is placed around it. Shams undergo the same surgery without cuffing.
Mechanical hypersensitivity. The threshold for ipsi- and contralateral hindpaw withdrawal is determined using von Frey filaments (Chaplan et al., Quantitative assessment of tactile allodynia in the rat paw, J Neurosci Methods, 53:55-63, PMID: 7990513(1994)).Mice are placed in clear Plexiglas boxes on an elevated mesh screen.
Calibrated von Frey filaments are applied to the plantar surface of each hindpaw (0.16-15 gm). The “up-down method” (Chaplan et al., Quantitative assessment of tactile allodynia in the rat paw, J Neurosci Methods, 53:55-63, PMID: 7990513(1994)) is used to determine the withdrawal threshold.
MECHANICAL ALLODYNIA. The threshold for ipsi- and contralateral hindpaw withdrawal is determined using von Frey filaments. von Frey filaments are applied to the plantar surface of each hindpaw (0.16-4 gm). The “up-down method (Chaplan et al., Quantitative assessment of tactile allodynia in the rat paw, J Neurosci Methods, 53:55-63, PMID 7990513 (1994))” is used to determine the withdrawal threshold, as in our previous studies (Masri et al., Zona incerta: a role in central pain, J Neurophysiol, 102:181-91, PMID 19403748 (2009); Whitt et al., Pathological activity in mediodorsal thalamus of rats with spinal cord injury pain, J Neurosci, 33:3915-26, PMID 23447602 (2013)). Alternatively, the withdrawal threshold is determined using the Hugo Basile Dynamic Plantar Aesthesiometer (Stoelting).
On day 0, all mice underwent unilateral sciatic nerve cuffing, in which a 2 mm long section of pre-split PE-20 tubing is placed around the right sciatic nerve under sterile conditions (Yalcin et al., The sciatic nerve cuffing model of neuropathic pain in mice, J Vis Exp, PMID 25078668 (2014)).

A further series concerns CXCL1. Briefly: Quantitative immunohistochemistry of ipsilateral dorsal horn astrocytes after PNI: CXCL1. The series is classed as in vivo, mouse.
From the text: as §1, §2

For series [4], the system named is mice with peripheral nerve injury (PNI) by sciatic nerve cuffing. Briefly: Sciatic nerve cuff model: cold/thermal allodynia (acetone). Format: in vivo, mouse. As to conditions: WT mice. How it is done: as §3
Cold allodynia is assessed using acetone. A 10 μL volume of acetone is propelled via air burst from a 200 μL pipette onto the mid-plantar surface of the hind paw without touching the skin. Time spent elevating/licking/biting/shaking the stimulated paw, up to 15 sec, is measured with a stop watch. Each paw is stimulated 5×, allowing 5 min to elapse between successive paw stimulations.
THERMAL ALLODYNIA is assessed using acetone (Carey et al., Inflammatory and Neuropathic Nociception is Preserved in GPR55 Knockout Mice, Sci Rep, 7:944, PMID 28428628 (2017)). A 10 μL volume of acetone is propelled via air burst from a 200 μL pipette onto the mid-plantar surface of the hind paw without touching the skin. Time spent elevating/licking/biting/shaking the stimulated paw, up to 15 sec, is measured with a stop watch. Each paw is stimulated 5×, allowing 5 min to elapse between successive paw stimulations.

For series [5] the following is noted: administered via transdermal skin patch, preclinical; cited from earlier work.
Series [6] has as its system mice with peripheral nerve injury (PNI) by sciatic nerve cuffing. In words: Sciatic nerve cuff model: thermal hyperalgesia (Hargreaves method). The note with it: adult male mice; intrathecal at lumbar 5, 5 ng/hour ×14 days from day +15; tested day +28. The series is classed as in vivo, mouse. The method, then: THERMAL […] is assessed using the Hargreaves method, using a Hargreaves-type apparatus (Ugo Basile Plantar Test Instrument; Stoelting). An unrestrained animal is placed in a Perspex enclosure on the top of glass pane. An infrared generator placed below glass pane is aimed at the plantar surface of the hind paw and the time to withdrawal is recorded automatically via an optic sensor, avoiding experimental bias. Paw-withdrawal latency is calculated as the mean of 3-5 different measurements taken at 15 min intervals. […] On day 0, all mice underwent unilateral sciatic nerve cuffing, in which a 2 mm long section of pre-split PE-20 tubing is placed around the right sciatic nerve under sterile conditions (Yalcin et al., The sciatic nerve cuffing model of neuropathic pain in mice, J Vis Exp, PMID 25078668 (2014)).

The next series has as its system IL-6. Briefly: Quantitative immunohistochemistry of ipsilateral dorsal horn astrocytes after PNI: IL-6. Format: in vivo, mouse.
From the text: as §1, §2

Series [7] can be described thus: Normal mechanical or thermal sensitivity thresholds (non-sensitized condition). As to conditions: non-sensitized condition (not shown). Format: in vivo.
Series [8] concerns experimental autoimmune encephalomyelitis. As to conditions: cited from earlier work.
The test system of a further series is pCaMKII. In words: Astrocytic pCaMKII post-PNI (immunolabeling). As to conditions: versus vehicle, n=3/group. Format: in vivo, mouse.
The mark [9] stands for this setting: Example 1 mice (FIG. 2D), compared to vehicle-treated controls.
Setting [10] is: mice from FIG. 10 (10 μg/day IP from day 21), tissues at day 49 (FIG. 6D).
Setting [11] is: WT mice, 10 μg/day intraperitoneal starting on day 21 after PNI.

Entries after “also recorded” stand apart in the source; their conditions may differ.

On to `COc1ccc(Cl)cc1C(=O)NCCc1ccc(S(=O)(=O)NC(=O)NC2CCCCC2)cc1` [glibenclamide], for which the “CCL2 in ipsilateral dorsal horn astrocytes” value is given as “significant reduction” in the series on CCL2 (setting [9]) and “significant reductions” with CCL2 (setting [10]). In [1], the serum levels is below 45 ng/mL. The “upregulation of GFAP or SUR1” value with GFAP or SUR1 is “does not upregulate GFAP or SUR1”. Besides, the “anxiety behaviors (open field and elevated plus maze)” value in series [2] is “significantly ameliorated”. Besides, the “depression-like behaviors (tail suspension)” value in series [2] is given as “significantly ameliorated”. In addition, the mechanical allodynia entry in [3] (WT mice, 10 μg IP loading dose plus 40 ng/hr subcutaneous via mini-osmotic pump ×2 weeks, shortly after PNI) is on record as “significant blunting”; in [3] (setting [11]) it was “significantly ameliorated; also recorded: gradual but complete reversal”; in series [3] (adult male mice, intrathecal at lumbar 5, 5 ng/hour ×14 days from day +15, tested day +28), “completely reversed”. The “duration of drug treatment required for complete reversal of mechanical allodynia” value in series [3] (setting [11]) is 2-3 weeks. In addition, the “allodynia symptoms (mechanical allodynia, FIG. 3C)” value in [3] (WT mice, treatment beginning on day 18 after PNI, after allodynia was well established) is given as “significant reversal”. In addition, the “CXCL1 in ipsilateral dorsal horn astrocytes” value in the series with CXCL1 (setting [9]) is reported as “significant reduction”; in the series with CXCL1 (setting [10]) it was “significant reductions”. Further, the cold allodynia entry in series [4] (10 μg IP loading dose plus 40 ng/hr subcutaneous via mini-osmotic pump ×2 weeks, shortly after PNI) is “significant blunting”. For the same compound, the thermal allodynia result in series [4] (10 μg/day intraperitoneal starting on day 21 after PNI) is on record as “significantly ameliorated”. The plasma levels result in series [5] was “steady plasma levels of drug that can be maintained below the hypoglycemic threshold”. In addition, in series [6], the thermal hyperalgesia entry is given as “completely reversed”. Moreover, the “IL-6 in ipsilateral dorsal horn astrocytes” value in the series on IL-6 (setting [9]) is “significant reduction”; with IL-6 (setting [10]) it was “significant reductions”. In [7], the “normal mechanical sensitivity thresholds” value was “does not modify”. Besides, the “normal thermal sensitivity thresholds” value in series [7] is reported as “does not modify”. In addition, the “entry into spinal cord tissues” value in [8] (CNS inflammatory condition (EAE)) was “readily enters spinal cord tissues”. The inflammation entry in [8] (EAE spinal cord) is “ameliorates inflammation”. Moreover, the “astrocytic pCaMKII” value with pCaMKII is “increases”.
